Measured values published in the NIST ThermoML archive (doi:10.1016/j.fluid.2014.09.020).

Assay: mn = molality of the nth substance listed, in mol/kg
Details: 101 kPa, Liquid; for viscosity: Capillary tube (Ostwald / Ubbelohde) method; for electrical conductivity: Direct current cell with electrodes; for mass density: Vibrating tube method

CCC[N+]1(C)CCCCC1.[Br-] [1-methyl-1-propylpiperidinium bromide] + O
Details | electrical conductivity [S/m] | mass density [kg/m3] | viscosity [mPa·s]
293.15 K, m1 = 0.2501 | 1.61 | 1008.72 | 1.291
293.15 K, m1 = 0.5 | 2.44 | 1018.24 | 1.402
293.15 K, m1 = 0.75 | 3.08 | 1027.42 | 1.529
293.15 K, m1 = 0.9998 | 3.57 | 1036.22 | 1.669
293.15 K, m1 = 1.25 | 3.91 | 1044.44 | 1.84
293.15 K, m1 = 1.5 | 4.14 | 1052.29 | 2.03
293.15 K, m1 = 1.75 | 4.29 | 1059.77 | 2.216
293.15 K, m1 = 2.001 | 4.38 | 1066.77 | 2.419
293.15 K, m1 = 2.2 | 4.41 | 1072.13 | 2.604
293.15 K, m1 = 2.4 | 4.44 | 1077.21 | 2.792
298.15 K, m1 = 0.2501 | 1.75 | 1007.5 | 1.178
298.15 K, m1 = 0.5 | 2.64 | 1016.88 | 1.259
298.15 K, m1 = 0.75 | 3.33 | 1025.92 | 1.356
298.15 K, m1 = 0.9998 | 3.86 | 1034.59 | 1.466
298.15 K, m1 = 1.25 | 4.23 | 1042.69 | 1.607
298.15 K, m1 = 1.5 | 4.48 | 1050.42 | 1.769
298.15 K, m1 = 1.75 | 4.65 | 1057.79 | 1.922
298.15 K, m1 = 2.001 | 4.76 | 1064.7 | 2.091
298.15 K, m1 = 2.2 | 4.81 | 1069.98 | 2.249
298.15 K, m1 = 2.4 | 4.85 | 1074.98 | 2.408
303.15 K, m1 = 0.2501 | 1.9 | 1006.09 | 1.044
303.15 K, m1 = 0.5 | 2.83 | 1015.33 | 1.116
303.15 K, m1 = 0.75 | 3.57 | 1024.23 | 1.203
303.15 K, m1 = 0.9998 | 4.14 | 1032.75 | 1.302
303.15 K, m1 = 1.25 | 4.54 | 1040.75 | 1.424
303.15 K, m1 = 1.5 | 4.82 | 1048.38 | 1.559
303.15 K, m1 = 1.75 | 5.04 | 1055.64 | 1.688
303.15 K, m1 = 2.001 | 5.18 | 1062.46 | 1.827
303.15 K, m1 = 2.2 | 5.24 | 1067.67 | 1.951
303.15 K, m1 = 2.4 | 5.3 | 1072.61 | 2.073
308.15 K, m1 = 0.2501 | 2.04 | 1004.66 | 0.9225
308.15 K, m1 = 0.5 | 3.03 | 1013.72 | 0.9723
308.15 K, m1 = 0.75 | 3.82 | 1022.62 | 1.037
308.15 K, m1 = 0.9998 | 4.43 | 1030.82 | 1.113
308.15 K, m1 = 1.25 | 4.86 | 1038.67 | 1.206
308.15 K, m1 = 1.5 | 5.16 | 1046.1 | 1.311
308.15 K, m1 = 1.75 | 5.4 | 1053.72 | 1.417
308.15 K, m1 = 2.001 | 5.57 | 1060.11 | 1.53
308.15 K, m1 = 2.2 | 5.65 | 1065.32 | 1.629
308.15 K, m1 = 2.4 | 5.72 | 1070.23 | 1.728

CCCC[N+]1(C)CCCCC1.[Br-] [N-butyl-N-methylpiperidinium bromide] + O
Details | electrical conductivity [S/m] | mass density [kg/m3] | viscosity [mPa·s]
293.15 K, m1 = 0.25 | 1.58 | 1008.15 | 1.271
293.15 K, m1 = 0.5006 | 2.29 | 1017.18 | 1.451
293.15 K, m1 = 0.7499 | 2.83 | 1025.78 | 1.631
293.15 K, m1 = 0.9999 | 3.23 | 1034.01 | 1.819
293.15 K, m1 = 1.25 | 3.5 | 1041.71 | 2.004
293.15 K, m1 = 1.5 | 3.66 | 1049.03 | 2.199
293.15 K, m1 = 1.75 | 3.77 | 1055.94 | 2.422
293.15 K, m1 = 2 | 3.83 | 1062.38 | 2.663
293.15 K, m1 = 2.2 | 3.85 | 1067.29 | 2.863
293.15 K, m1 = 2.4 | 3.87 | 1071.91 | 3.084
298.15 K, m1 = 0.25 | 1.64 | 1006.6 | 1.114
298.15 K, m1 = 0.5006 | 2.44 | 1015.55 | 1.283
298.15 K, m1 = 0.7499 | 3.04 | 1024.1 | 1.442
298.15 K, m1 = 0.9999 | 3.49 | 1032.29 | 1.598
298.15 K, m1 = 1.25 | 3.78 | 1039.86 | 1.75
298.15 K, m1 = 1.5 | 3.96 | 1047.06 | 1.907
298.15 K, m1 = 1.75 | 4.08 | 1053.87 | 2.087
298.15 K, m1 = 2 | 4.15 | 1060.17 | 2.287
298.15 K, m1 = 2.2 | 4.17 | 1064.99 | 2.457
298.15 K, m1 = 2.4 | 4.2 | 1069.52 | 2.649
303.15 K, m1 = 0.25 | 1.77 | 1004.71 | 0.9885
303.15 K, m1 = 0.5006 | 2.61 | 1013.61 | 1.133
303.15 K, m1 = 0.7499 | 3.26 | 1022.18 | 1.266
303.15 K, m1 = 0.9999 | 3.75 | 1030.35 | 1.394
303.15 K, m1 = 1.25 | 4.09 | 1037.65 | 1.528
303.15 K, m1 = 1.5 | 4.32 | 1044.94 | 1.67
303.15 K, m1 = 1.75 | 4.48 | 1051.69 | 1.812
303.15 K, m1 = 2 | 4.57 | 1057.79 | 1.972
303.15 K, m1 = 2.2 | 4.6 | 1062.59 | 2.119
303.15 K, m1 = 2.4 | 4.63 | 1066.98 | 2.279
308.15 K, m1 = 0.25 | 1.86 | 1002.93 | 0.882
308.15 K, m1 = 0.5006 | 2.77 | 1011.89 | 0.98
308.15 K, m1 = 0.7499 | 3.47 | 1020.33 | 1.078
308.15 K, m1 = 0.9999 | 4.01 | 1028.69 | 1.179
308.15 K, m1 = 1.25 | 4.39 | 1035.69 | 1.282
308.15 K, m1 = 1.5 | 4.64 | 1043.08 | 1.392
308.15 K, m1 = 1.75 | 4.82 | 1049.51 | 1.511
308.15 K, m1 = 2 | 4.92 | 1055.41 | 1.639
308.15 K, m1 = 2.2 | 4.96 | 1060.23 | 1.749
308.15 K, m1 = 2.4 | 4.99 | 1064.28 | 1.868

CC[N+]1(C)CCCCC1.[Br-] [N-ethyl-N-methylpiperidinium bromide] + O
Details | electrical conductivity [S/m] | mass density [kg/m3] | viscosity [mPa·s]
293.15 K, m1 = 0.2501 | 1.67 | 1009.34 | 1.412
293.15 K, m1 = 0.5 | 2.69 | 1019.49 | 1.432
293.15 K, m1 = 0.75 | 3.46 | 1029.24 | 1.492
293.15 K, m1 = 0.9992 | 4.01 | 1038.65 | 1.587
293.15 K, m1 = 1.25 | 4.41 | 1047.4 | 1.707
293.15 K, m1 = 1.5 | 4.68 | 1055.5 | 1.849
293.15 K, m1 = 1.75 | 4.84 | 1063.82 | 2.021
293.15 K, m1 = 1.998 | 4.94 | 1071.67 | 2.208
293.15 K, m1 = 2.2 | 5.03 | 1077.12 | 2.361
293.15 K, m1 = 2.4 | 5.12 | 1082.45 | 2.521
298.15 K, m1 = 0.2501 | 1.94 | 1007.59 | 1.254
298.15 K, m1 = 0.5 | 2.92 | 1017.73 | 1.274
298.15 K, m1 = 0.75 | 3.72 | 1027.52 | 1.325
298.15 K, m1 = 0.9992 | 4.36 | 1036.99 | 1.401
298.15 K, m1 = 1.25 | 4.82 | 1045.62 | 1.516
298.15 K, m1 = 1.5 | 5.14 | 1053.61 | 1.655
298.15 K, m1 = 1.75 | 5.42 | 1061.89 | 1.787
298.15 K, m1 = 1.998 | 5.61 | 1069.59 | 1.932
298.15 K, m1 = 2.2 | 5.68 | 1074.97 | 2.069
298.15 K, m1 = 2.4 | 5.73 | 1080.2 | 2.2
303.15 K, m1 = 0.2501 | 2.02 | 1005.68 | 1.038
303.15 K, m1 = 0.5 | 3.08 | 1015.67 | 1.091
303.15 K, m1 = 0.75 | 3.95 | 1025.8 | 1.161
303.15 K, m1 = 0.9992 | 4.65 | 1034.64 | 1.248
303.15 K, m1 = 1.25 | 5.15 | 1043.44 | 1.349
303.15 K, m1 = 1.5 | 5.5 | 1051.59 | 1.46
303.15 K, m1 = 1.75 | 5.81 | 1059.87 | 1.583
303.15 K, m1 = 1.998 | 6.02 | 1067.36 | 1.712
303.15 K, m1 = 2.2 | 6.09 | 1072.73 | 1.82
303.15 K, m1 = 2.4 | 6.15 | 1077.82 | 1.931
308.15 K, m1 = 0.2501 | 2.24 | 1003.67 | 0.8791
308.15 K, m1 = 0.5 | 3.29 | 1013.78 | 0.9294
308.15 K, m1 = 0.75 | 4.2 | 1023.78 | 0.9953
308.15 K, m1 = 0.9992 | 4.98 | 1032.63 | 1.074
308.15 K, m1 = 1.25 | 5.54 | 1041.4 | 1.163
308.15 K, m1 = 1.5 | 5.93 | 1049.3 | 1.26
308.15 K, m1 = 1.75 | 6.34 | 1057.7 | 1.363
308.15 K, m1 = 1.998 | 6.61 | 1064.48 | 1.469
308.15 K, m1 = 2.2 | 6.66 | 1070.15 | 1.554
308.15 K, m1 = 2.4 | 6.69 | 1075.12 | 1.639
